Test results: ChEMBL document CHEMBL1201862, “PubChem BioAssay data set” (2004)
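Exposure lasted 48 hours, with cells grown in 96-well plates and compounds tested at five concentrations. GI50 is the concentration that inhibits growth by half.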 Calls of active or inactive are those of the source. Rule as the data show it: active = GI50 up to about 1.1 µM and inactive = higher.

Experiments:
Assay in all cases: NCI anticancer screen, dose series, 48 h
SK-OV-3 = tested on: SK-OV-3
UACC-257 = tested on: UACC-257
XF498 = tested on: XF498
NCI-H522 = tested on: NCI-H522
ACHN = tested on: ACHN
NCI-H23 = tested on: NCI-H23
OVCAR-3 = tested on: OVCAR-3
NCI-H460 = tested on: NCI-H460
786-0 = tested on: 786-0
DMS-114 = tested on: DMS-114
COLO 205 = tested on: COLO 205
M19-MEL = tested on: M19-MEL
SK-MEL-2 = tested on: SK-MEL-2
LOX IMVI = tested on: LOX IMVI
SK-MEL-5 = tested on: SK-MEL-5
HOP-62 = tested on: HOP-62
U-251 = tested on: U-251
UO-31 = tested on: UO-31
HOP-92 = tested on: HOP-92
TK-10 = tested on: TK-10
RXF 393 = tested on: RXF 393
DMS-273 = tested on: DMS-273
SNB-19 = tested on: SNB-19
HL-60 = tested on: HL-60
MOLT-4 = tested on: MOLT-4
K562 = tested on: K562
HCT-116 = tested on: HCT-116
SF-295 = tested on: SF-295
CCRF-CEM = tested on: CCRF-CEM
A498 = tested on: A498
IGROV-1 = tested on: IGROV-1
SW-620 = tested on: SW-620
OVCAR-8 = tested on: OVCAR-8
DLD-1 = tested on: DLD-1
LXFL 529 = tested on: LXFL 529
KM12 = tested on: KM12
HOP-18 = tested on: HOP-18
KM-20L2 = tested on: KM-20L2
SNB-75 = tested on: SNB-75
HT-29 = tested on: HT-29
SF-539 = tested on: SF-539
RPMI-8226 = tested on: RPMI-8226
SK-MEL-28 = tested on: SK-MEL-28
EKVX = tested on: EKVX
SF-268 = tested on: SF-268
Malme-3M = tested on: Malme-3M
HCC 2998 = tested on: HCC 2998
OVCAR-5 = tested on: OVCAR-5
A549 = tested on: A549
SNB-78 = tested on: SNB-78
SR = tested on: SR
M14 = tested on: M14
CAKI-1 = tested on: CAKI-1
NCI-H226 = tested on: NCI-H226
UACC-62 = tested on: UACC-62
OVCAR-4 = tested on: OVCAR-4
SN12C = tested on: SN12C
HCT-15 = tested on: HCT-15

SMILES: CCOC(=O)C1(C(=O)OCC)OC(=O)NC2=C1CCCC2
- GI50 (SK-OV-3): > 100 µM (inactive)
- GI50 (UACC-257): > 100 µM (inactive)
- GI50 (XF498): > 100 µM (inactive)
- GI50 (NCI-H522): > 100 µM (inactive)
- GI50 (ACHN): > 100 µM (inactive)
- GI50 (NCI-H23): > 100 µM (inactive)
- GI50 (OVCAR-3): > 100 µM (inactive)
- GI50 (NCI-H460): > 100 µM (inactive)
- GI50 (786-0): > 100 µM (inactive)
- GI50 (DMS-114): > 100 µM (inactive)
- GI50 (COLO 205): > 100 µM (inactive)
- GI50 (M19-MEL): > 100 µM (inactive)
- GI50 (SK-MEL-2): > 100 µM (inactive)
- GI50 (LOX IMVI): > 100 µM (inactive)
- GI50 (SK-MEL-5): > 100 µM (inactive)
- GI50 (HOP-62): > 100 µM (inactive)
- GI50 (U-251): > 100 µM (inactive)
- GI50 (UO-31): > 100 µM (inactive)
- GI50 (HOP-92): > 100 µM (inactive)
- GI50 (TK-10): > 100 µM (inactive)
- GI50 (RXF 393): > 100 µM (inactive)
- GI50 (DMS-273): > 100 µM (inactive)
- GI50 (SNB-19): > 100 µM (inactive)
- GI50 (HL-60): > 100 µM (inactive)
- GI50 (MOLT-4): > 100 µM (inactive)
- GI50 (K562): > 100 µM (inactive)
- GI50 (HCT-116): > 100 µM (inactive)
- GI50 (SF-295): > 100 µM (inactive)
- GI50 (CCRF-CEM): > 100 µM (inactive)
- GI50 (A498): > 100 µM (inactive)
- GI50 (IGROV-1): > 100 µM (inactive)
- GI50 (SW-620): > 100 µM (inactive)
- GI50 (OVCAR-8): > 100 µM (inactive)
- GI50 (DLD-1): > 100 µM (inactive)
- GI50 (LXFL 529): > 100 µM (inactive)
- GI50 (KM12): > 100 µM (inactive)
- GI50 (HOP-18): 19.5 µM (inactive)
- GI50 (KM-20L2): > 100 µM (inactive)
- GI50 (SNB-75): > 100 µM (inactive)
- GI50 (HT-29): > 100 µM (inactive)
- GI50 (SF-539): > 100 µM (inactive)
- GI50 (RPMI-8226): > 100 µM (inactive)
- GI50 (SK-MEL-28): > 100 µM (inactive)
- GI50 (EKVX): > 100 µM (inactive)
- GI50 (SF-268): > 100 µM (inactive)
- GI50 (Malme-3M): > 100 µM (inactive)
- GI50 (HCC 2998): > 100 µM (inactive)
- GI50 (OVCAR-5): > 100 µM (inactive)
- GI50 (A549): > 100 µM (inactive)
- GI50 (SNB-78): > 100 µM (inactive)

SMILES: O=[N+]([O-])c1ccc(-n2nnc(C3=NCCCN3)c2-c2ccc(Cl)cc2)cc1
- GI50 (SK-OV-3): > 100 µM (inactive)
- GI50 (SR): 29 µM (inactive)
- GI50 (UACC-257): 67.1 µM (inactive)
- GI50 (XF498): > 100 µM (inactive)
- GI50 (NCI-H522): > 100 µM (inactive)
- GI50 (M14): 54 µM (inactive)
- GI50 (ACHN): > 100 µM (inactive)
- GI50 (CAKI-1): > 100 µM (inactive)
- GI50 (NCI-H23): > 100 µM (inactive)
- GI50 (NCI-H226): > 100 µM (inactive)
- GI50 (UACC-62): > 100 µM (inactive)
- GI50 (OVCAR-3): > 100 µM (inactive)
- GI50 (NCI-H460): > 100 µM (inactive)
- GI50 (786-0): > 100 µM (inactive)
- GI50 (COLO 205): 30.5 µM (inactive)
- GI50 (M19-MEL): 69.5 µM (inactive)
- GI50 (SK-MEL-2): 33.5 µM (inactive)
- GI50 (LOX IMVI): > 100 µM (inactive)
- GI50 (SK-MEL-5): 82.2 µM (inactive)
- GI50 (OVCAR-4): > 100 µM (inactive)
- GI50 (HOP-62): > 100 µM (inactive)
- GI50 (U-251): > 100 µM (inactive)
- GI50 (UO-31): 42.3 µM (inactive)
- GI50 (HOP-92): > 100 µM (inactive)
- GI50 (TK-10): > 100 µM (inactive)
- GI50 (RXF 393): 73.1 µM (inactive)
- GI50 (DMS-273): > 100 µM (inactive)
- GI50 (SNB-19): > 100 µM (inactive)
- GI50 (HL-60): 46.3 µM (inactive)
- GI50 (MOLT-4): 79.3 µM (inactive)
- GI50 (K562): 61.1 µM (inactive)
- GI50 (HCT-116): 89.1 µM (inactive)
- GI50 (SF-295): > 100 µM (inactive)
- GI50 (CCRF-CEM): > 100 µM (inactive)
- GI50 (A498): > 100 µM (inactive)
- GI50 (IGROV-1): > 100 µM (inactive)
- GI50 (SW-620): > 100 µM (inactive)
- GI50 (OVCAR-8): > 100 µM (inactive)
- GI50 (DLD-1): > 100 µM (inactive)
- GI50 (LXFL 529): > 100 µM (inactive)
- GI50 (KM12): > 100 µM (inactive)
- GI50 (HOP-18): > 100 µM (inactive)
- GI50 (KM-20L2): > 100 µM (inactive)
- GI50 (SN12C): > 100 µM (inactive)
- GI50 (HCT-15): > 100 µM
- GI50 (SNB-75): > 100 µM (inactive)
- GI50 (HT-29): 58.5 µM (inactive)
- GI50 (SF-539): > 100 µM (inactive)
- GI50 (RPMI-8226): > 100 µM (inactive)
- GI50 (SK-MEL-28): 32.7 µM (inactive)
- GI50 (EKVX): > 100 µM (inactive)
- GI50 (SF-268): > 100 µM (inactive)
- GI50 (Malme-3M): > 100 µM (inactive)
- GI50 (HCC 2998): > 100 µM (inactive)
- GI50 (OVCAR-5): > 100 µM (inactive)
- GI50 (A549): > 100 µM (inactive)
- GI50 (SNB-78): > 100 µM (inactive)
